What was measured:
MMP-9 [1] = test: ELISA of MMP-9 release by cytokine-stimulated keratinocytes; assay type: cell-based, humains; details: for Libération de MMP-9 (pg/ml) ± sem: stimulated keratinocytes, 48 h, supernatant; for effet sur la libération de MMP-9 (in words): concentrations as in Tableau 5 (JAK 10 µM; TA, TB 500 ng/ml; Célastrol 100 ng/ml; extrait 1 200 ng/ml; extrait 2 150 ng/ml)
IL-8 [2] = test: RT-qPCR gene expression in cytokine-stimulated keratinocytes; assay type: cell-based, humains; details: 24 h
DEFB4A = test: as above; assay type: cell-based, humains; details: 24 h
S100A7 = test: as above; assay type: cell-based, humains; details: 24 h
MMP-9 [3] = test: as above; assay type: cell-based, humains; details: 24 h
[4] = ORAC (Oxygen Radical Antioxydant Capacity) antioxidant test in tubo; details: for Indice ORAC / 100g triterpènes (x 1000): Trolox standard, AAPH, fluorescéine
Excerpt: Le stress oxydatif fait partie des causes possibles de l'apparition du vitiligo. Cette expérience a pour objectif de mesurer l'activité antioxydante de chaque triterpène pentacyclique et des deux extraits, en comparaison avec un témoin positif bien connu, la vitamine C. La méthode in tubo utilisée est celle d'évaluation ORAC (Oxygen Radical Antioxydant Capacity) adaptée de celle décrite par Davalos et al. (J Agric Food Chem 52(1):48-54, 2004). L'indice ORAC permet d'évaluer la capacité anti-oxydante de chaque composé testé dans l'exemple 2. Ce test permet d'évaluer et de classer les différents composés testés suivant leur pouvoir anti-oxydant vis-à-vis des radicaux libres péroxyl. Le AAPH (2,2'-azobis-2-méthyl-propanimidamide, dihydrochloride) est à l'origine de radicaux libres péroxyl. Ce test est utilisé pour mimer la cinétique de dégradation de la fluorescéine par les radicaux libres. Ceci se traduit par une diminution de fluorescence en fonction du temps et de la concentration en actif anti-oxydant présent dans l'extrait testé. L'acide 3,4-dihydro-6-hydroxy-2,5,7,8-tétraméthyl-2H-1-benzopyran-2-carboxylique ou Trolox est utilisé comme standard, il s'agit d'un analogue hydrophile de la vitamine E (anti-oxydant connu). L'ajout de Trolox (gamme de référence) ou d'extrait ou triterpène pentacyclique, protège la fluorescéine de la dégradation. Ceci permet d'évaluer une activité antioxydante mesurée par rapport à une gamme de Trolox.
Toutes les solutions sont réalisées dans du tampon phosphate 75 mM, pH à 7,6. La fluorescéine est à 1,17 µM (solution mère […]). AAPH à 125 mM est préparé extemporanément, Trolox à 1 mM. Dans une plaque de 96 puits noir, il est déposé 20 µl d'antioxydant (gamme Trolox ou composé à tester), 160 µl de fluorescéine à 1,17 µM. la plaque est recouverte d'un film, puis est incubée pendant 15 minutes à 37°C. la solution de AAPH est ajoutée manuellement et le plus rapidement possible à raison de 20 µl par puits. La plaque est alors incubée immédiatement à 37°C dans un spectrofluorimètre (SpectraMax). Une lecture est enregistrée toutes les minutes pendant 90 minutes. La longueur d'onde d'excitation est de 485 nm et la longueur d'onde d'émission est de 520 nm. Chaque essai est réalisé en triplicata.
Les aires sous la courbe (AUC) pour chacun des essais sont calculées. Les AUC nets sont déterminées de la façon suivante : AUC net = AUC point de gamme ou échantillon−AUC blanc. [formula]
La droite d'étalonnage est établie, la concentration en Trolox (µM) en fonction de l'AUC net. L'équation de la droite est utilisée pour déterminer un équivalent en Trolox (µM) pour chacun des échantillons dosés.
Eq Trolox en µM = a x (AUC net)2 + b x (AUC net), a et b sont déterminés par l'équation de la droite.
Pour être dosés, les échantillons sont dilués, de sorte que les valeurs mesurées soient comprises dans la gamme étalon utilisée pour le dosage. L'acide ascorbique (vitamine C) est utilisé comme référence.
L'indice ORAC correspond à des […] de Trolox / 100g de matières.
Les résultats ci-dessous ont été calculés pour 100g d'extrait en Triterpènes, Tingénine A, Tingénine B et célastrol, soit le calcul : [formula]

CCL5 = test: RT-qPCR gene expression in cytokine-stimulated keratinocytes; assay type: cell-based, humains; details: 24 h
IL-23A = test: as above; assay type: cell-based, humains; details: 24 h
CXCL16 = test: as above; assay type: cell-based, humains; details: 24 h
CXCL10 = test: as above; assay type: cell-based, humains; details: 24 h
IL-8 [5] = test: ELISA of IL-8 release by cytokine-stimulated keratinocytes; assay type: cell-based, humains; details: for effet sur la libération d'IL-8 (in words): concentrations as in Tableau 5 (JAK 10 µM; TA, TB 500 ng/ml; Célastrol 100 ng/ml; extrait 1 200 ng/ml; extrait 2 150 ng/ml)
CCL20 = test: RT-qPCR gene expression in cytokine-stimulated keratinocytes; assay type: cell-based, humains; details: 24 h
CXCL11 = test: as above; assay type: cell-based, humains; details: 24 h
[6] = 15 ng/ml, stimulated keratinocytes
[7] = 45 ng/ml, stimulated keratinocytes
[8] = 135 ng/ml, stimulated keratinocytes
[9] = 10µM, stimulated keratinocytes (IL-17, Oncostatin M, TNFα 3ng/ml)
[10] = 405 ng/ml, stimulated keratinocytes

Compound	effet sur la libération de MMP-9 (in words) (MMP-9 [1])	% Stimulation / Gènes témoins, IL-8 (IL-8 [2]; [7]) [%]	% Stimulation / Gènes témoins, IL-8 (IL-8 [2]; [8]) [%]	% Stimulation / Gènes témoins, DEFB4A (DEFB4A; [7]) [%]	% Stimulation / Gènes témoins, DEFB4A (DEFB4A; [8]) [%]	% Stimulation / Gènes témoins, S100A7 (S100A7; [7]) [%]	% Stimulation / Gènes témoins, S100A7 (S100A7; [8]) [%]	% Stimulation / Gènes témoins, MMP-9 (MMP-9 [3]; [7]) [%]	% Stimulation / Gènes témoins, MMP-9 (MMP-9 [3]; [8]) [%]	% Stimulation / Gènes témoins, CCL5 (CCL5; [7]) [%]	% Stimulation / Gènes témoins, CCL5 (CCL5; [8]) [%]	% Stimulation / Gènes témoins, IL-23A (IL-23A; [7]) [%]	% Stimulation / Gènes témoins, IL-23A (IL-23A; [8]) [%]	% Stimulation / Gènes témoins, CXCL16 (CXCL16; [7]) [%]	% Stimulation / Gènes témoins, CXCL16 (CXCL16; [8]) [%]	% Stimulation / Gènes témoins, CXCL10 (CXCL10; [7]) [%]	% Stimulation / Gènes témoins, CXCL10 (CXCL10; [8]) [%]	effet sur la libération d'IL-8 (in words) (IL-8 [5])	% Stimulation / Gènes témoins, CCL20 (CCL20; [7]) [%]	% Stimulation / Gènes témoins, CCL20 (CCL20; [8]) [%]	other results
CC1=C(O)C(=O)C=C2C1=CC=C1[C@@]2(C)CC[C@@]2(C)[C@@H]3C[C@](C)(C(=O)O)CC[C@]3(C)CC[C@]12C [Célastrol]	effet inhibiteur	36	5	32	3	53	16	88	9	12	3	41	15	51	23	20	10	effet inhibiteur	35	11	Libération de MMP-9 (pg/ml) ± sem (MMP-9 [1]; 100 ng/ml): 395 ± 15 pg/mL; % Stimulation / Gènes témoins, IL-8 (IL-8 [2]; [6]): 100%; % Stimulation / Gènes témoins, DEFB4A (DEFB4A; [6]): 90%; % Stimulation / Gènes témoins, S100A7 (S100A7; [6]): 78%; % Stimulation / Gènes témoins, MMP-9 (MMP-9 [3]; [6]): 139%; Indice ORAC / 100g triterpènes (x 1000) ([4]; 30 µg/ml): 126 466 / 100g triterpènes (x 1000); % Stimulation / Gènes témoins, CCL5 (CCL5; [6]): 79%; % Stimulation / Gènes témoins, IL-23A (IL-23A; [6]): 63%; % Stimulation / Gènes témoins, CXCL16 (CXCL16; [6]): 95%; % Stimulation / Gènes témoins, CXCL10 (CXCL10; [6]): 72%; Libération d'IL-8 (pg/ml) ± sem (IL-8 [5]; 100 ng/ml, stimulated keratinocytes, 48 h, supernatant): 83 ± 7 pg/mL; % Stimulation / Gènes témoins, CCL20 (CCL20; [6]): 86%; % Stimulation / Gènes témoins, CXCL11 (CXCL11; [6]): 59%; % Stimulation / Gènes témoins, CXCL11 (CXCL11; [7]): 5%; % Stimulation / Gènes témoins, CXCL11 (CXCL11; [8]): 1%
CC(C)(C)c1nc2c3cc[nH]c(=O)c3c3cc(F)ccc3c2[nH]1 [Inhibiteur JAK, reference compound]	inhibe fortement et statistiquement																	inhibe fortement et statistiquement			Libération de MMP-9 (pg/ml) ± sem (MMP-9 [1]; 10 µM): 389 ± 18 pg/mL; % Stimulation / Gènes témoins, IL-8 (IL-8 [2]; [9]): 18%; % Stimulation / Gènes témoins, DEFB4A (DEFB4A; [9]): 7%; % Stimulation / Gènes témoins, S100A7 (S100A7; [9]): 25%; % Stimulation / Gènes témoins, MMP-9 (MMP-9 [3]; [9]): 40%; % Stimulation / Gènes témoins, CCL5 (CCL5; [9]): 16%; % Stimulation / Gènes témoins, IL-23A (IL-23A; [9]): 67%; % Stimulation / Gènes témoins, CXCL16 (CXCL16; [9]): 76%; % Stimulation / Gènes témoins, CXCL10 (CXCL10; [9]): 38%; % Stimulation / Gènes témoins, CCL20 (CCL20; [9]): 292%; % Stimulation / Gènes témoins, CXCL11 (CXCL11; [9]): 14%
CC1=C(O)C(=O)C=C2C1=CC=C1[C@@]2(C)CC[C@@]2(C)C3C[C@@H](C)C(=O)C[C@]3(C)CC[C@]12C (stereo partly shown) [Tingénine A]	effet inhibiteur	113	125	81	63	91	91	98	93	92	64	123	102	116	93	108	80	effet inhibiteur	112	124	Libération de MMP-9 (pg/ml) ± sem (MMP-9 [1]; 500 ng/ml): 787 ± 105 pg/mL; % Stimulation / Gènes témoins, IL-8 (IL-8 [2]; [10]): 53%; % Stimulation / Gènes témoins, DEFB4A (DEFB4A; [10]): 22%; % Stimulation / Gènes témoins, S100A7 (S100A7; [10]): 70%; % Stimulation / Gènes témoins, MMP-9 (MMP-9 [3]; [10]): 34%; Indice ORAC / 100g triterpènes (x 1000) ([4]; 0,75 µg/ml): 33 960 / 100g triterpènes (x 1000); pouvoir anti-oxydant compared with vitamine C (in words) ([4]; comparison of ORAC indices of Tableau 6): inférieur; % Stimulation / Gènes témoins, CCL5 (CCL5; [10]): 19%; % Stimulation / Gènes témoins, IL-23A (IL-23A; [10]): 55%; % Stimulation / Gènes témoins, CXCL16 (CXCL16; [10]): 50%; % Stimulation / Gènes témoins, CXCL10 (CXCL10; [10]): 31%; % Stimulation / Gènes témoins, CCL20 (CCL20; [10]): 80%; % Stimulation / Gènes témoins, CXCL11 (CXCL11; [7]): 107%; % Stimulation / Gènes témoins, CXCL11 (CXCL11; [8]): 85%; % Stimulation / Gènes témoins, CXCL11 (CXCL11; [10]): 23%
O=C1O[C@H]([C@@H](O)CO)C(O)=C1O [Vitamine C, acide ascorbique, reference compound]																					Indice ORAC / 100g triterpènes (x 1000) ([4]; 3 µg/ml): 69 813 / 100g triterpènes (x 1000)
Tingénine B	effet inhibiteur	96	70	67	48	76	63	88	63	68	55	80	72	83	77	93	83	effet inhibiteur	105	85	Libération de MMP-9 (pg/ml) ± sem (MMP-9 [1]; 500 ng/ml): 828 ± 31 pg/mL; % Stimulation / Gènes témoins, IL-8 (IL-8 [2]; [10]): 44%; % Stimulation / Gènes témoins, DEFB4A (DEFB4A; [10]): 16%; % Stimulation / Gènes témoins, S100A7 (S100A7; [10]): 57%; % Stimulation / Gènes témoins, MMP-9 (MMP-9 [3]; [10]): 32%; Indice ORAC / 100g triterpènes (x 1000) ([4]; 7,5 µg/ml): 124 320 / 100g triterpènes (x 1000); % Stimulation / Gènes témoins, CCL5 (CCL5; [10]): 19%; % Stimulation / Gènes témoins, IL-23A (IL-23A; [10]): 34%; % Stimulation / Gènes témoins, CXCL16 (CXCL16; [10]): 54%; % Stimulation / Gènes témoins, CXCL10 (CXCL10; [10]): 30%; % Stimulation / Gènes témoins, CCL20 (CCL20; [10]): 82%; % Stimulation / Gènes témoins, CXCL11 (CXCL11; [7]): 78%; % Stimulation / Gènes témoins, CXCL11 (CXCL11; [8]): 57%; % Stimulation / Gènes témoins, CXCL11 (CXCL11; [10]): 27%
